*1 amine or outer side, *2 acyl side, *3 side chain or, on linkers, in order; H or OH if unused. Where a SMILES comes first, the peptide text is derived from it. [ ]: non-standard residue; d: D form. Ala(pyrimidin-5-yl) = N[C@@H](Cc1cncnc1)C(=O)O; Phe(3-COOH) = N[C@@H](Cc1cccc(C(=O)O)c1)C(=O)O; NMePhe(3-Me) = CN[C@@H](Cc1cccc(C)c1)C(=O)O; NMePhe(4-Me) = CN[C@@H](Cc1ccc(C)cc1)C(=O)O; NMePhe(3-F) = CN[C@@H](Cc1cccc(F)c1)C(=O)O; NMePhe(4-F) = CN[C@@H](Cc1ccc(F)cc1)C(=O)O; NMeNva(5,5-F2) = CN[C@@H](CCC(F)F)C(=O)O; X11 = CC(C)(F)CC[C@H](N[*:1])C(=O)[*:2]; X46 = O=C([C@H](Cc1cccnc1F)N[*:1])[*:2]; Nle(5,5-F2) = CC(F)(F)CC[C@H](N)C(=O)O; Phe(4-Me) = Cc1ccc(C[C@H](N)C(=O)O)cc1; 1Nal = N[C@@H](Cc1cccc2ccccc12)C(=O)O; NHCH2CH2SCH2CO = O=C(CSCCN[*:1])[*:2]; X35 = CN([C@@H](CCCF)C(=O)[*:2])[*:1]; Phe(2-F) = N[C@@H](Cc1ccccc1F)C(=O)O; NMe3Pal = CN[C@@H](Cc1cccnc1)C(=O)O; NMeY = CN[C@@H](Cc1ccc(O)cc1)C(=O)O; X1 = O=C(C12CC(CN[*:1])(C1)C2)[*:2]; Ala(cPr) = N[C@@H](CC1CC1)C(=O)O; NMeF = CN[C@@H](Cc1ccccc1)C(=O)O; PhLac = O=C(O)[C@@H](O)Cc1ccccc1; 3Pal = N[C@@H](Cc1cccnc1)C(=O)O; Ahp(2) = CCCCC[C@H](N)C(=O)O; Cba = N[C@@H](CC1CCC1)C(=O)O; hLeu = CC(C)CC[C@H](N)C(=O)O; NMeA = CN[C@@H](C)C(=O)O; Nle = CCCC[C@H](N)C(=O)O
molecular target: phosphorylation levels of ERK1/2 in AsPC-1 (homozygous KRAS-G12D) cells (Homo sapiens, UniProt P01116, G12D); assay: Cellular phospho-ERK assay in AsPC-1 cells (Alpha Screen), assay medium without fetal bovine serum; format: cell-based; settings: phospho-ERK AlphaScreen, 18 h;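 note: signal taken as phospho-ERK over total ERK per well, both detected in one multiplex bead assay, EC50 from four-parameter logistic fit of dose-response curves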
Sequence (P01116 1-186 G12D): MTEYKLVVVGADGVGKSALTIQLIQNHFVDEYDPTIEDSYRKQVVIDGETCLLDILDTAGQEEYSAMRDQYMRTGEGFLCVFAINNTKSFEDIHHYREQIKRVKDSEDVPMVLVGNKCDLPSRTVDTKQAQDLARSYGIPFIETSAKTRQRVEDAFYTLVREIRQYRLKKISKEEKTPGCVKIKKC

Which EC50 does the source give for `CCCC[C@@H]1NC(=O)[C@H](Cc2cccnc2)NC(=O)[C@H](C)N(C)C(=O)[C@H](Cc2ccc(OC)cc2)NC(=O)C23CC(CNC(=O)[C@H](Cc4cccnc4)N(C)C(=O)[C@H](CCCC)NC(=O)[C@H](Cc4ccccc4F)NC1=O)(C2)C3` [compound 169, cyclo(TyrOMe-NMeA-3Pal-Nle-Phe2F-Nle-NMe3Pal-amBCP)] (cyclo([3Pal][Nle][Phe(2-F)][Nle][NMe3Pal][X1]Y(Me)[NMeA])) here?
The EC50 was over 50800 nM.

How did the EC50 turn out when `CCCC[C@@H]1NC(=O)[C@H](Cc2cccnc2)NC(=O)[C@H](C)N(C)C(=O)[C@H](Cc2ccc(C)cc2)NC(=O)C23CC(CNC(=O)[C@H](Cc4cccnc4)N(C)C(=O)[C@H](CCCC)NC(=O)[C@H](Cc4ccccc4F)NC1=O)(C2)C3` [compound 170, cyclo(Phe4Me-NMeA-3Pal-Nle-Phe2F-Nle-NMe3Pal-amBCP)] (cyclo([3Pal][Nle][Phe(2-F)][Nle][NMe3Pal][X1][Phe(4-Me)][NMeA])) was run?
Its EC50 is 37200 nM.

Which EC50 does the source give for `CCCC[C@@H]1NC(=O)[C@H](Cc2cncnc2)NC(=O)[C@H](C)N(C)C(=O)[C@H](Cc2ccccc2)OC(=O)C23CC(CNC(=O)[C@H](Cc4ccc(C)cc4)N(C)C(=O)[C@H](CCCC)NC(=O)[C@H](Cc4ccccc4F)NC1=O)(C2)C3` [compound 171, cyclo(FLac-NMeA-PyrimAla-Nle-Phe2F-Nle-NMePhe4Me-amBCP)] (cyclo([NMeA][Ala(pyrimidin-5-yl)][Nle][Phe(2-F)][Nle][NMePhe(4-Me)][X1][PhLac])) here?
The EC50 was 223 nM.

`CCCC[C@@H]1NC(=O)[C@H](Cc2cncnc2)NC(=O)[C@H](C)N(C)C(=O)[C@H](Cc2ccccc2)OC(=O)C23CC(CNC(=O)[C@H](Cc4cccc(C)c4)N(C)C(=O)[C@H](CCCC)NC(=O)[C@H](Cc4ccccc4F)NC1=O)(C2)C3` [compound 172, cyclo(FLac-NMeA-PyrimAla-Nle-Phe2F-Nle-NMePhe3Me-amBCP)] (cyclo([NMeA][Ala(pyrimidin-5-yl)][Nle][Phe(2-F)][Nle][NMePhe(3-Me)][X1][PhLac])) was tested. Which EC50 did it give?
Its EC50 is 256 nM.

`CCCC[C@@H]1NC(=O)[C@H](Cc2cncnc2)NC(=O)[C@H](C)N(C)C(=O)[C@H](Cc2ccccc2)OC(=O)C23CC(CNC(=O)[C@H](Cc4ccc(F)cc4)N(C)C(=O)[C@H](CCCC)NC(=O)[C@H](Cc4ccccc4F)NC1=O)(C2)C3` [compound 173, cyclo(FLac-NMeA-PyrimAla-Nle-Phe2F-Nle-NMePhe4F-amBCP)] (cyclo([NMeA][Ala(pyrimidin-5-yl)][Nle][Phe(2-F)][Nle][NMePhe(4-F)][X1][PhLac])) was tested. Which EC50 did it give?
Its EC50 is 994 nM.

`CCCC[C@@H]1NC(=O)[C@H](Cc2cncnc2)NC(=O)[C@H](C)N(C)C(=O)[C@H](Cc2ccccc2)OC(=O)C23CC(CNC(=O)[C@H](Cc4cccc(F)c4)N(C)C(=O)[C@H](CCCC)NC(=O)[C@H](Cc4ccccc4F)NC1=O)(C2)C3` [compound 174, cyclo(FLac-NMeA-PyrimAla-Nle-Phe2F-Nle-NMePhe3F-amBCP)] (cyclo([NMeA][Ala(pyrimidin-5-yl)][Nle][Phe(2-F)][Nle][NMePhe(3-F)][X1][PhLac])) was tested. Which EC50 did it give?
Its EC50 is 734 nM.

With `CCCC[C@@H]1NC(=O)[C@H](Cc2cncnc2)NC(=O)[C@H](C)N(C)C(=O)[C@H](Cc2ccccc2)OC(=O)C23CC(CNC(=O)[C@H](Cc4ccc(OC)cc4)N(C)C(=O)[C@H](CCCC)NC(=O)[C@H](Cc4ccccc4F)NC1=O)(C2)C3` [compound 175, cyclo(FLac-NMeA-PyrimAla-Nle-Phe2F-Nle-NMeYOMe-amBCP)] (cyclo([NMeA][Ala(pyrimidin-5-yl)][Nle][Phe(2-F)][Nle][NMeY](Me)[X1][PhLac])) as the compound, how does the EC50 read?
The EC50 was 439 nM.

How did the EC50 turn out when `CCCC[C@@H]1NC(=O)[C@H](CCCCN)NC(=O)[C@H](CCCNC(=N)N)NC(=O)[C@H](Cc2cccc3ccccc23)NC(=O)CSCCNC(=O)[C@H](Cc2ccccc2)N(C)C(=O)[C@H](CCCC)NC(=O)[C@H](Cc2cccc(C(=O)O)c2)NC1=O` [compound 197, cyclo(1Nal-R-K-Nle-Phe3COOH-Nle-NMeF-Cysteamine)-ClAc] (cyclo([1Nal]RK[Nle][Phe(3-COOH)][Nle][NMeF][NHCH2CH2SCH2CO])) was run?
The EC50 was over 50800 nM.

With `CCCCC[C@@H]1NC(=O)[C@H](Cc2ccc(OC)cc2)NC(=O)[C@H](CC2CCC2)NC(=O)[C@H](Cc2cccnc2)NC(=O)[C@H](CCCNC(=N)N)NC(=O)[C@H](Cc2ccccc2)OC(=O)C23CC(CNC(=O)[C@H](Cc4ccccc4)N(C)C1=O)(C2)C3` [compound 211, cyclo(FLac-R-3Pal-cBuA-TyrOMe-Ahp-NMeF-amBCP)] (cyclo([PhLac]R[3Pal][Cba]Y(Me)[Ahp(2)][NMeF][X1])) as the compound, how does the EC50 read?
The EC50 was over 50800 nM.

Which EC50 does the source give for `CCCC[C@@H]1NC(=O)[C@H](Cc2cccnc2)NC(=O)[C@H](CCCNC(=N)N)NC(=O)[C@H](Cc2ccccc2)OC(=O)C23CC(CNC(=O)[C@H](Cc4ccccc4)N(C)C(=O)[C@H](CCCC)NC(=O)[C@H](Cc4ccccc4F)NC1=O)(C2)C3` [compound 212, cyclo(FLac-R-3Pal-Nle-Phe2F-Nle-NMeF-amBCP)] (cyclo([PhLac]R[3Pal][Nle][Phe(2-F)][Nle][NMeF][X1])) here?
Its EC50 is 39400 nM.

With `CC(C)CC[C@@H]1NC(=O)[C@H](Cc2cccnc2F)NC(=O)[C@H](CC2CC2)NC(=O)[C@H](Cc2cncnc2)NC(=O)[C@H](C)N(C)C(=O)[C@H](Cc2ccccc2)OC(=O)C23CC(CNC(=O)[C@H](Cc4ccccc4)N(C)C1=O)(C2)C3` [compound 215, cyclo(FLac-NMeA-PyrimAla-cPrA-3Pal2F-hL-NMeF-amBCP)] (cyclo([Ala(cPr)][X46][hLeu][NMeF][X1][PhLac][NMeA][Ala(pyrimidin-5-yl)])) as the compound, how does the EC50 read?
The EC50 was 4180 nM.

Which EC50 does the source give for `CC(C)CC[C@@H]1NC(=O)[C@H](Cc2ccccc2F)NC(=O)[C@H](CC2CC2)NC(=O)[C@H](Cc2cncnc2)NC(=O)[C@H](CCCF)N(C)C(=O)[C@H](Cc2ccccc2)OC(=O)C23CC(CNC(=O)[C@H](Cc4ccccc4)N(C)C1=O)(C2)C3` [compound 216, cyclo(FLac-NMeNvaF-PyrimAla-cPrA-Phe2F-hL-NMeF-amBCP)] (cyclo([Ala(cPr)][Phe(2-F)][hLeu][NMeF][X1][PhLac][X35][Ala(pyrimidin-5-yl)])) here?
The EC50 was 1230 nM.

For `CC(C)CC[C@@H]1NC(=O)[C@H](Cc2ccccc2F)NC(=O)[C@H](CC2CC2)NC(=O)[C@H](Cc2cncnc2)NC(=O)[C@H](CCC(F)F)N(C)C(=O)[C@H](Cc2ccccc2)OC(=O)C23CC(CNC(=O)[C@H](Cc4ccccc4)N(C)C1=O)(C2)C3` [compound 217, cyclo(FLac-NMeNvaF2-PyrimAla-cPrA-Phe2F-hL-NMeF-amBCP)] (cyclo([Ala(cPr)][Phe(2-F)][hLeu][NMeF][X1][PhLac][NMeNva(5,5-F2)][Ala(pyrimidin-5-yl)])), which EC50 is on record?
The EC50 was 1770 nM.

With `C[C@H]1C(=O)N[C@@H](Cc2cncnc2)C(=O)N[C@@H](CC2CCC2)C(=O)N[C@@H](Cc2ccccc2F)C(=O)N[C@@H](CCC(C)(F)F)C(=O)N(C)[C@@H](Cc2ccccc2)C(=O)NCC23CC(C2)(C3)C(=O)O[C@@H](Cc2ccccc2)C(=O)N1C` [compound 224, cyclo(FLac-NMcA-PyrimAla-cBuA-Phe2F-Nle3F2-NMeF-amBCP)] (cyclo([Cba][Phe(2-F)][Nle(5,5-F2)][NMeF][X1][PhLac][NMeA][Ala(pyrimidin-5-yl)])) as the compound, how does the EC50 read?
Its EC50 is 542 nM.

Which EC50 does the source give for `C[C@H]1C(=O)N[C@@H](Cc2cncnc2)C(=O)N[C@@H](CC2CCC2)C(=O)N[C@@H](Cc2ccccc2F)C(=O)N[C@@H](CCC(C)(C)F)C(=O)N(C)[C@@H](Cc2ccccc2)C(=O)NCC23CC(C2)(C3)C(=O)O[C@@H](Cc2ccccc2)C(=O)N1C` [compound 225, cyclo(FLac-NMeA-PyrimAla-cBuA-Phe2F-hL3F-NMeF-amBCP)] (cyclo([Cba][Phe(2-F)][X11][NMeF][X1][PhLac][NMeA][Ala(pyrimidin-5-yl)])) here?
Its EC50 is 674 nM.

Reference: patent US20260001914A1, “MACROCYCLIC PEPTIDES TARGETING KRAS” (Merck Sharp & Dohme LLC, priority 2022, published 2026)
